Test system: HSSY-II tumor spheroid viability
Test: Anticancer human tumor HSSY-II cell line growth inhibition;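 further: spheroids exposed to compounds for seven days before reading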;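 on viability, T/C: percent of DMSO vehicle control viability so 100% = untreated level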
Settings: spheroids with HUVEC and MSC; for viability, T/C: stronger effect = lower value
How it was run: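 Single agents and combinations were tested on spheroids built from tumor cells plus HUVEC and hMSC, at half-log dilutions starting at or near clinical Cmax, else 10 microM; final DMSO 0.25% (v/v).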

[1] = curve of first compound, second compound 30 pM
[2] = curve of first compound, second compound 94.9 pM
[3] = curve of first compound, second compound 0.0003 µM
[4] = curve of first compound, second compound 0.000949 µM
[5] = curve of first compound, second compound 0.003 µM
[6] = second compound 30 pM, first compound 0.0316 µM
[7] = second compound 30 pM, first compound 0.1 µM
[8] = second compound 30 pM, first compound 0.316 µM
[9] = second compound 30 pM, first compound 1 µM
[10] = second compound 30 pM, first compound 3.16 µM
[11] = second compound 30 pM, first compound 10 µM
[12] = second compound 94.9 pM, first compound 0.0316 µM
[13] = second compound 94.9 pM, first compound 0.1 µM
[14] = second compound 94.9 pM, first compound 0.316 µM
[15] = second compound 94.9 pM, first compound 1 µM
[16] = second compound 94.9 pM, first compound 3.16 µM
[17] = second compound 94.9 pM, first compound 10 µM
[18] = second compound 0.0003 µM, first compound 0.0316 µM
[19] = second compound 0.0003 µM, first compound 0.1 µM
[20] = second compound 0.0003 µM, first compound 0.316 µM
[21] = second compound 0.0003 µM, first compound 1 µM
[22] = second compound 0.0003 µM, first compound 3.16 µM
[23] = second compound 0.0003 µM, first compound 10 µM
[24] = second compound 0.000949 µM, first compound 0.0316 µM
[25] = second compound 0.000949 µM, first compound 0.1 µM
[26] = second compound 0.000949 µM, first compound 0.316 µM
[27] = second compound 0.000949 µM, first compound 1 µM
[28] = second compound 0.000949 µM, first compound 3.16 µM
[29] = second compound 0.000949 µM, first compound 10 µM
[30] = second compound 0.003 µM, first compound 0.0316 µM
[31] = second compound 0.003 µM, first compound 0.1 µM
[32] = second compound 0.003 µM, first compound 0.316 µM
[33] = second compound 0.003 µM, first compound 1 µM
[34] = second compound 0.003 µM, first compound 3.16 µM
[35] = second compound 0.003 µM, first compound 10 µM

Compound | IC50 [1] | IC50 [2] | IC50 [3] | IC50 [4] | IC50 [5] | viability, T/C [6] | viability, T/C [7] | viability, T/C [8] | viability, T/C [9] | viability, T/C [10] | viability, T/C [11] | viability, T/C [12] | viability, T/C [13] | viability, T/C [14] | viability, T/C [15] | viability, T/C [16] | viability, T/C [17] | viability, T/C [18] | viability, T/C [19] | viability, T/C [20] | other results
CC1COCCN1c1cc(-c2ccnn2C)c2ccnc(-c3ccn[nH]3)c2n1 (stereo unspecified) + COc1cc2c(cc1O)CCNC21CSC2c3c(OC(C)=O)c(C)c4c(c3C(COC1=O)N1C(O)C3Cc5cc(C)c(OC)c(O)c5C(C21)N3C)OCO4 | < 31.6 nM | < 31.6 nM | < 31.6 nM | < 31.6 nM | < 31.6 nM | 14.4% | 6.1% | 4.22% | 3.28% | 3.45% | 5.25% | 8.99% | 6.52% | 3.33% | 2.89% | 3.13% | 4.37% | 5.86% | 5.4% | 3.44% | viability, T/C [21]: 2.22%; viability, T/C [22]: 1.93%; viability, T/C [23]: 2.79%; viability, T/C [24]: 2.32%; viability, T/C [25]: 1.87%; viability, T/C [26]: 1.51%; viability, T/C [27]: 0.74%; viability, T/C [28]: 0.11%; viability, T/C [29]: 0.34%; viability, T/C [30]: 0.49%; viability, T/C [31]: 0.59%; viability, T/C [32]: 0.48%; viability, T/C [33]: 0.35%; viability, T/C [34]: 0.32%; viability, T/C [35]: 0.51%
[2H]c1nc(C)nc([2H])c1-c1cc(NC[C@@H](C)c2cccc3c(C(=O)NC)ccnc23)ncn1 + COc1cc2c(cc1O)CCNC21CSC2c3c(OC(C)=O)c(C)c4c(c3C(COC1=O)N1C(O)C3Cc5cc(C)c(OC)c(O)c5C(C21)N3C)OCO4 | > 10000 nM | > 10000 nM | < 31.6 nM | < 31.6 nM | < 31.6 nM | 98% | 93.5% | 95.2% | 99.1% | 94.2% | 86.2% | 86.5% | 89% | 92.5% | 88.4% | 92.1% | 78.3% | 16.1% | 16% | 17.8% | viability, T/C [21]: 14.6%; viability, T/C [22]: 9.62%; viability, T/C [23]: 12%; viability, T/C [24]: 2.64%; viability, T/C [25]: 1.58%; viability, T/C [26]: 3.44%; viability, T/C [27]: 3.49%; viability, T/C [28]: 2.59%; viability, T/C [29]: 1.53%; viability, T/C [30]: 0.15%; viability, T/C [31]: 0.14%; viability, T/C [32]: 0.14%; viability, T/C [33]: 0.14%; viability, T/C [34]: 1.6%; viability, T/C [35]: 0.24%
CC[C@@]1(O)C(=O)OCc2c1cc1n(c2=O)Cc2cc3c(CN(C)C)c(O)ccc3nc2-1 |  |  |  |  |  |  |  |  |  |  |  |  |  |  |  |  |  |  |  |  | viability, T/C (compound 0.003 µM): 85.6% [middle of 10 runs]; viability, T/C (compound 0.03 µM): 9.85% [middle of 10 runs]; viability, T/C (compound 0.0949 µM): 8.03% [middle of 9 runs]; viability, T/C (compound 0.3 µM): 5.25% [middle of 10 runs]; IC50 (compound alone, run of 12/02/2019): 8.2 nM [middle of 5 runs]; IC50 (compound alone, run of 12/12/2019): 11.6 nM [middle of 5 runs]

Reference: PubChem BioAssay AID1845204 (Molecular Pharmacology Branch, DTP, NCI, 2023)
